Measurements: US20070004652A1, “Treatment of occlusive thrombosis” (Mars, Incorporated, priority 2005, published 2007)
Entries after “also recorded” stand apart in the source; their conditions may differ.

Columns and labels:
human endothelial cells = assay: Genomic investigation (Affymetrix microarray, Taqman validation) of gene expression of human endothelial cells; type: cell-based; settings: human endothelial cells in vitro and human plasma
Source text: We have employed a genomic approach to comprehensively investigate the effects of (−)-epicatechin (including a mixture of (−)-epicatechin metabolites), procyanidin dimer B1, and procyanidin dimer A2 on the gene expression of human endothelial cells in vitro. Following the completion of an extensive evaluation utilizing an Affymetrix Oligonucleotide Microarray Gene Expression Analysis System, we have subsequently validated our findings using Taqman® Gene Expression Assays, and confirmed the ensuing data by directly assessing amounts or activities of the target proteins in cultured human endothelial cells and human plasma, respectively.

tPA release from HUVEC = assay: tPA release from HUVEC, tPA activity in culture medium (ELISA-based assay); type: cell-based, human
Method: HUVEC cultures were established as detailed above, by seeding HUVEC into fibronectin-coated 6 well plates at a seeding density of 5000 cells/cm^2. Cells were cultured without sub-culturing using standard cell culture conditions. 50% of the medium was replaced with fresh medium every 24 h. […] The remaining medium was collected and the weight was recorded for subsequent activity calculations (for calculation purposes we assumed that 1 g of medium=1 mL). tPA and PAI release was measured as the activity of the respective proteins in the collected media using an ELISA-based assay [Innovative Research Inc., Southfield, Mich., USA] in accordance with the manufacturer's instructions.

plasma uPA = assay: Plasma uPA activity after ingestion by human volunteers; type: in vivo; settings: raw data
Method: (§1) The test compound was administered to human volunteers in accordance with IRB-approved protocols and as detailed in the previous section of this report. The activity of tPA, uPA, and PAI in plasma was measured using an ELISA-based assay [Innovative Research Inc., Southfield, Mich., USA] in accordance with the manufacturer's instructions.

plasma tPAtotal = assay: Plasma tPAtotal (free and bound tPA) after ingestion by human volunteers; type: in vivo; settings: raw data, One Way ANOVA P=0.769
Method: as §1
In addition to measurements of plasma tPA activity, we determined the amount of tPAtotal in plasma (tPAtotal=free and bound tPA).

plasma PAI = assay: Plasma PAI activity after ingestion by human volunteers; type: in vivo
Method: as §1

[1] = test system: tPA mRNA expression in human umbilical vein endothelial cells (HUVEC); assay: Taqman gene expression assay, tPA mRNA in HUVEC; type: cell-based; settings: 5 μM, 0.5 to 24 hours, FIG. 1A
Method: (§2) Human umbilical vein endothelial cells (HUVEC) were cultured in an endothelium-specific, 2% serum-containing, growth factor-supplemented, antibiotic-free culture medium. Cryo-preserved cells from a single, donor in passage 1 or 2 were directly seeded into fibronectin-coated 6 well plates at a seeding density of 5000 cells/cm^2 and cultured without sub-culturing using standard cell culture conditions. 50% of the medium was replaced with fresh medium every 24 h until confluence. Cells were treated with the B1 dimer at a final concentration of μ5 M for 0.5, 2, 4, and 24 hours, respectively, and mRNA was isolated with a Qiagen mRNA Isolations System. cDNA was synthesized from mRNA samples using a HPLC-purified T7 Oligo(dT) primer and SuperScript II reverse transcriptase enzyme (Invitrogen). The ensuing cDNA samples were purified using a Qiagen PCR purification system. The cDNA templates were added to standardized Taqmang® Gene Expression Assays (Applied Biosystems) reactions mixtures and a Real-Time PCR was performed using standardized thermo-cycling conditions. An absolute quantification method of analyzing gene expression levels was used on triplicate reactions of each sample, and amplification plots generated by the Applied Biosystems 7900HT Fast Real-Time PCR System were analyzed using ABI Prism SDS v2.1 software.

[2] = Closure time after ingestion by human volunteers; type: in vivo; settings: FIG. 4
plasma tPA = assay: Plasma tPA activity after ingestion by human volunteers; type: in vivo; settings: for plasma tPA activity, time course: non-transformed (raw) data
Method: as §1

[3] = test system: total PAI in HUVEC medium; assay: Total PAI (free and tPA/uPA-bound) in HUVEC culture medium; type: cell-based, human; settings: 24 h, 5 μM as compared to 1 μM, FIG. 3
Method: (§3) HUVEC cultures were established as detailed above, by seeding HUVEC into fibronectin-coated 6 well plates at a seeding density of 5000 cells/cm^2. Cells were cultured without sub-culturing using standard cell culture conditions. 50% of the medium was replaced with fresh medium every 24 h. Following an incubation of the HUVECs with the TC at a concentration of 5 μM for 24 h, an aliquote of the media was collected and analyzed for its content of tPA, and PAI, respectively. The remaining medium was collected and the weight was recorded for subsequent activity calculations (for calculation purposes we assumed that 1 g of medium=1 mL). tPA and PAI release was measured as the activity of the respective proteins in the collected media using an ELISA-based assay [Innovative Research Inc., Southfield, Mich., USA] in accordance with the manufacturer's instructions.

[4] = test system: uPA mRNA expression in human umbilical vein endothelial cells (HUVEC); assay: Taqman gene expression assay, uPA mRNA in HUVEC; type: cell-based; settings: 5 μM, 0.5 to 24 hours, FIG. 1B
Method: as §2

[5] = test system: PAI mRNA expression in human umbilical vein endothelial cells (HUVEC); assay: Taqman gene expression assay, PAI mRNA in HUVEC; type: cell-based; settings: 5 μM, 0.5 to 24 hours, FIG. 1C
Method: as §2

PAI release from HUVEC = assay: PAI activity in HUVEC culture medium (ELISA-based assay); type: cell-based, human; settings: 24 h, not quite statistically significant (P=0.061, One Way ANOVA)
Method: as §3

Row | SMILES | expression, secreting or activity of various proteins related to cardiovascular function (human endothelial cells) | increases in media-present tPA activity versus vehicle (tPA release from HUVEC; 24 h, 5 μM and 10 μM, One Way ANOVA followed by Tukey Test) | tPA activity in the cell culture medium (tPA release from HUVEC; 24 hours of incubation, different concentrations, FIG. 2) | plasma uPA activity, time-dependent change (plasma uPA) | plasma tPAtotal levels, time-dependent change (plasma tPAtotal) | plasma PAI activity, time-dependent change (plasma PAI; raw data) | PAI plasma activity, normalized to individual baselines (plasma PAI; statistical significance at 4 h post-ingestion (P=0.011, t-test)) | mRNA expression for tPA [1] | closure time as compared to vehicle (water) [2] | increase in tPAmax (mean maximal increase in plasma tPA activity) (plasma tPA; n=4) [%] | mean tPAmax (plasma tPA; n=4) | plasma tPA activity, time course (plasma tPA; One Way ANOVA P=0.333) | plasma tPA activity, time course (plasma tPA; One Way ANOVA P=0.333, listed as B1) | total PAI (free and tPA/uPA-bound) in medium [3] | mRNA expression for uPA [4] | expression of PAI mRNA [5] | activity of PAI in the media (PAI release from HUVEC)
1 | Oc1cc(O)c2c(c1)O[C@H](c1ccc(O)c(O)c1)[C@H](O)C2 [(−)-epicatechin] | modulated |  |  |  |  |  |  |  |  |  |  |  |  |  |  |  | 
2 | Oc1cc(O)c2c(c1)O[C@@]1(c3ccc(O)c(O)c3)Oc3cc(O)c4c(c3[C@@H]2[C@H]1O)O[C@H](c1ccc(O)c(O)c1)[C@H](O)C4 [A2 dimer, epicatechin-(4β→8; 2β→O→7)-epicatechin] | modulated |  |  |  |  |  |  |  |  |  |  |  |  |  |  |  | 
3 | Oc1cc(O)c2c(c1)O[C@H](c1ccc(O)c(O)c1)[C@H](O)[C@H]2c1c(O)cc(O)c2c1O[C@H](c1ccc(O)c(O)c1)[C@@H](O)C2 [B1 dimer, procyanidin dimer B1] | modulated | significantly different from vehicle treatments | dose-dependent increase; also recorded: increase in tPA activity | did not cause a statistically significant, time-dependant change | neither the ingestion of the B1 dimer nor that of the vehicle caused a time-dependent change | did not cause a statistically significant, time-dependant change | time-dependently decreased | time-dependent increases | augmentation of the closure time | 46 | 261.4+/−39.4 mU/mL | time-dependent increase | increases plasma tPA activity | modulate; also recorded: increase in total PAI | time-dependent increases | decreases | dose-dependant decrease
